Measurements reported in paper PMC10331583, “Control of fibrosis with enhanced safety via asymmetric inhibition of prolyl‐tRNA synthetase 1” (EMBO Molecular Medicine, 2023).
Several values for one entry are separate records, joined by “and”; a condition that tells them apart may be missing. Equal values may be shown once.

Key:
[1] = system: WI‐26 VA4 cells stably expressing EV (empty vector); assay: Collagen ELISA in cells stably expressing EV; conditions: for Collagen level, average: average of 4 experiments; for Collagen level, single replicates: replicates of Experiments #1-#4
phosphorylation of SMAD2 = assay: Phosphorylation of SMAD2 (TGF‐β pathway), immunoblot; type: cell-based, human; conditions: 15 h; for Relative ratio of p-SMAD2/SMAD2, average / Relative ratio of p-SMAD2/SMAD2: + TGF-β; for Relative ratio of p-SMAD2/SMAD2: single experiments
Protocol: (§1) The levels of proteins were determined by immunoblot assay. […] The lowest concentration at which protein levels started to decrease was normalized by IC50 values for collagen level and used as the y‐axis value. […] The slope and R^2 value were calculated using GraphPad Prism 7.0. […] The activation of the TGF‐β pathway was determined by monitoring the phosphorylation of SMAD2. Immunoblot images are representative of three biologically independent experiments. • The band intensities of the immunoblot images in (C) were quantified using ImageJ (n = 3; One‐way ANOVA; *P < 0.05, **P < 0.01, ***P < 0.001; mean ± SEM). Source data are available online for this figure.

C57BL/6 mice = assay: Bleomycin‐induced lung fibrosis, therapeutic model 2 (compounds from 2 weeks after bleomycin); type: in vivo; conditions: model 2, drug administration from day 14
Protocol: To examine therapeutic efficacy of DWN12088, all experiments were conducted following the international guidelines on the ethical use of experimental animals and approved by the Institutional Animal Care and Use Committee of Daewoong Pharmaceutical (IACUC‐21‐014). C57BL/6 mice (7–8‐week‐old, male, obtained from Orient Bio) were anesthetized with Zoletil and injected intratracheally with 100 μl bleomycin (2 units/kg) (Merck, B8416) to induce lung fibrosis. A group of disease‐free mice (“untreated”) were injected with PBS instead of bleomycin. After a week, mice treated with bleomycin were randomized to (i) vehicle (saline), (ii) HF 0.05 mg/kg, (iii) HF 0.1 mg/kg, and (iv) DWN12088 10 mg/kg groups (n = 5 for each group) according to their body weight. The drugs were orally administered once daily for 2 weeks, and then the outcome was analyzed. For the experiments testing the effect of the compounds 2 weeks after bleomycin challenge, the experiment was approved by IACUC of Daewoong Pharmaceutical (IACUC‐22‐009). […]
The collagen contents of lung tissues were measured using Sircol™ soluble collagen assay (Biocolor Ltd., S1000) following the manufacturer's instructions. […] Tissue extracts were incubated with Sirius red dye, and the absorbance was determined at 540 nm using a spectrophotometer. […]

WI‐26 VA4 cells = assay: Immunoblot of cellular protein levels with different proline content; type: cell-based, human; conditions: Fig 2A
Protocol: as §1

[2] = Two‐week repeated‐dose toxicity study, HF versus DWN12088; type: in vivo, mice; conditions: male, ICR (CrljOri: CD1), mouse, in vivo; oral once daily for 2 weeks, ICR mice
Protocol: (§2) To compare the in vivo toxicity of HF and DWN12088, all experiments were conducted following the international guidelines on the ethical use of experimental animals and approved by the Institutional Animal Care and Use Committee of KNOTUS (KNOTUS IACUC 21‐KE‐250 and KNOTUS IACUC 21‐KE‐359). ICR (CrljOri: CD1) mice (7‐week‐old, male, obtained from Koatech) were randomized (n = 6 for each group) and then orally administered with the indicated amounts of HF or DWN12088 once daily for 2 weeks. In the high‐dose group, the dose of DWN12088 was reduced from 120 mg/kg to 90 mg/kg from day 6. […] Body weight was measured at day 1, 2, 3, 4, 5, 8, 14, and 15.
(§3) After administering the drugs for 2 weeks, mice were fasted overnight and anesthetized with isoflurane. Blood samples were collected in EDTA‐coated tubes, and the following parameters were determined using a hematology analyzer (ADVIA 2120, SIEMENS, USA); red blood cell, platelet count, hematocrit, white blood cell, red cell distribution width, hemoglobin concentration distribution width, hemoglobin concentration, neutrophil, mean corpuscular volume, lymphocyte, mean cell hemoglobin, monocyte, mean cell hemoglobin concentration, eosinophil, mean platelet volume, basophil, reticulocytes, and large unstained cells.
(§4) For clinical chemistry, the remaining blood samples were incubated in a vacutainer tube with clot activator and then centrifuged to prepare serum. The following parameters were measured in the serum using a chemistry analyzer (7180, Hitachi, Japan) and electrolyte analyzer (AVL 9180, Roche, Switzerland); aspartate aminotransferase, albumin, alanine aminotransferase, albumin/globulin ratio, alkaline phosphatase, blood urea nitrogen, creatine phosphokinase, creatinine, total bilirubin, inorganic phosphorus, glucose, calcium, total cholesterol, sodium, triglyceride, potassium, total protein, and chloride.
(§5) After blood collection, blood was drained by incising the abdominal aorta and posterior vena cava, and all organs of the skin, brain, thoracic cavity, and abdominal cavity were observed. The relative weights of the lung, spleen, liver, heart, kidney, thymus, and testes were calculated by dividing the weight of each organ by the body weight. The experiments were conducted as non‐blind test.

ICR (CrljOri: CD1) mice = assay: as above; type: in vivo
Protocol: as §2, §3, §4, §5

[3] = 120 ➔ 90 mg/kg (from day 6) oral once daily

O[C@H]1CCCN[C@@H]1CCCn1cnc2c(Cl)c(Cl)ccc21 [DWN12088]
CC50/collagen IC50 ([1]; EV cells): 12.55
Relative (CC50)/(collagen IC50) ([1]; EV cells (reference)): 1.00
IC50 ([1]; Homo sapiens, WI26VA4, read-out: IC50, collagen level): 1910 nM
Collagen level, average ([1]; WI-26 VA4 EV, 30 nM): 106.29 % of control
Collagen level, single replicates ([1]; WI-26 VA4 EV, 30 nM): 103.80 % of control and 93.68 % of control and 118.18 % of control and 101.32 % of control and 113.71 % of control and 100.49 % of control and 110.94 % of control and 125.36 % of control and 99.68 % of control and 91.65 % of control and 118.14 % of control and 98.48 % of control
Collagen level, average ([1]; WI-26 VA4 EV, 100 nM): 97.93 % of control
Collagen level, single replicates ([1]; WI-26 VA4 EV, 100 nM): 104.52 % of control and 100.73 % of control and 92.07 % of control and 94.49 % of control and 97.76 % of control and 98.74 % of control and 108.25 % of control and 102.28 % of control and 98.65 % of control and 91.35 % of control and 85.38 % of control and 100.91 % of control
Collagen level, average ([1]; WI-26 VA4 EV, 300 nM): 81.48 % of control
Collagen level, single replicates ([1]; WI-26 VA4 EV, 300 nM): 91.09 % of control and 79.16 % of control and 74.69 % of control and 82.43 % of control and 80.75 % of control and 70.25 % of control and 88.16 % of control and 89.14 % of control and 75.64 % of control and 84.11 % of control and 76.95 % of control and 85.36 % of control
Collagen level, average ([1]; WI-26 VA4 EV, 1000 nM): 68.39 % of control
Collagen level, single replicates ([1]; WI-26 VA4 EV, 1000 nM): 76.13 % of control and 68.91 % of control and 67.97 % of control and 76.57 % of control and 67.70 % of control and 49.07 % of control and 76.54 % of control and 74.06 % of control and 46.15 % of control and 70.23 % of control and 69.64 % of control and 77.72 % of control
Collagen level, average ([1]; WI-26 VA4 EV, 3000 nM): 47.79 % of control
Collagen level, single replicates ([1]; WI-26 VA4 EV, 3000 nM): 46.50 % of control and 50.68 % of control and 52.48 % of control and 46.12 % of control and 48.12 % of control and 44.47 % of control and 46.33 % of control and 45.40 % of control and 47.63 % of control and 51.25 % of control and 49.30 % of control and 45.24 % of control
Collagen level, average ([1]; WI-26 VA4 EV, 10000 nM): 13.92 % of control
Collagen level, single replicates ([1]; WI-26 VA4 EV, 10000 nM): 13.28 % of control and 17.27 % of control and 16.23 % of control and 13.89 % of control and 12.05 % of control and 10.58 % of control and 12.31 % of control and 11.80 % of control and 11.03 % of control and 17.85 % of control and 17.12 % of control and 13.65 % of control
Collagen level, average ([1]; WI-26 VA4 EV, 30000 nM): 4.05 % of control
Collagen level, single replicates ([1]; WI-26 VA4 EV, 30000 nM): 4.24 % of control and 4.41 % of control and 4.74 % of control and 6.13 % of control and 2.65 % of control and 2.97 % of control and 3.41 % of control and 2.56 % of control and 2.84 % of control and 4.90 % of control and 3.97 % of control and 5.81 % of control
Collagen level, average ([1]; WI-26 VA4 EV, 100000 nM): 3.50 % of control
Collagen level, single replicates ([1]; WI-26 VA4 EV, 100000 nM): 2.77 % of control and 4.80 % of control and 4.00 % of control and 3.82 % of control and 3.27 % of control and 2.48 % of control and 2.45 % of control and 2.57 % of control and 2.65 % of control and 4.71 % of control and 3.89 % of control and 4.63 % of control
Collagen level, average ([1]; WI-26 VA4 EV, 300000 nM): 2.44 % of control
Collagen level, single replicates ([1]; WI-26 VA4 EV, 300000 nM): 2.49 % of control and 2.31 % of control and 2.89 % of control and 2.54 % of control
HillSlope, collagen level ([1]; WI-26 VA4 EV, four-parameter fit): -0.8641
LogIC50, collagen level ([1]; WI-26 VA4 EV, log of concentration in nM, four-parameter fit): 3.281
Relative ratio of p-SMAD2/SMAD2, average (phosphorylation of SMAD2; 0.2 μM): 0.76
Relative ratio of p-SMAD2/SMAD2 (phosphorylation of SMAD2; 0.2 μM): 0.61 and 0.94 and 0.72
Relative ratio of p-SMAD2/SMAD2, average (phosphorylation of SMAD2; 0.6 μM): 0.75
Relative ratio of p-SMAD2/SMAD2 (phosphorylation of SMAD2; 0.6 μM): 0.65 and 0.71 and 0.87
Relative ratio of p-SMAD2/SMAD2, average (phosphorylation of SMAD2; 2 μM): 0.70
Relative ratio of p-SMAD2/SMAD2 (phosphorylation of SMAD2; 2 μM): 0.48 and 0.69 and 0.92
Relative ratio of p-SMAD2/SMAD2, average (phosphorylation of SMAD2; 6 μM): 0.78
Relative ratio of p-SMAD2/SMAD2 (phosphorylation of SMAD2; 6 μM): 0.66 and 0.77 and 0.91
Relative ratio of p-SMAD2/SMAD2, average (phosphorylation of SMAD2; 20 μM): 0.41
Relative ratio of p-SMAD2/SMAD2, average (phosphorylation of SMAD2; 60 μM): 0.16
SMAD2 phosphorylation (phosphorylation of SMAD2; TGF‐β 2 ng/ml): reduced SMAD2 phosphorylation
fibrotic properties (C57BL/6 mice): less apparent
effective dose for decreasing general proteins (SMAD2, AIMP2, AMPKα, cyclin D1) compared with COL1A1 (WI‐26 VA4 cells): about 10 times
NOAEL at 2 weeks [2]: 60 mg/kg
Hematology ↓ (ICR (CrljOri: CD1) mice; 60 mg/kg oral once daily, 2 weeks): HGB, MCHC
Clinical chemistry ↑ (ICR (CrljOri: CD1) mice; [3]): AST, ALT, ALP, GLU, BUN, CRE, IP, K^+
Clinical chemistry ↓ (ICR (CrljOri: CD1) mice; [3]): TP, TCHO
Clinical signs (ICR (CrljOri: CD1) mice; [3]): Inanimation, hypothermia
Hematology ↓ (ICR (CrljOri: CD1) mice; [3]): RBC, HGB, MCHC
Necropsy finding (ICR (CrljOri: CD1) mice; [3]): • Pale liver (1/6) • Thymus atrophy (3/6) • Pale and large kidney (1/6) • Dark red contents in the stomach (1/6)
Organ weight ↑ (ICR (CrljOri: CD1) mice; [3]): Kidney, liver
Organ weight ↓ (ICR (CrljOri: CD1) mice; [3]): Spleen, thymus
Mortality: Terminal sacrifice (ICR (CrljOri: CD1) mice; 120 ➔ 90 mg/kg (from day 6) oral once daily, days 2, 5, 6 and 12): Terminal sacrifice: 4/6 (Each animal on days 2, 5, 6, and 12)
reduction in body weight (ICR (CrljOri: CD1) mice; all the tested doses): did not show weight loss
NOAEL of DWN12088 relative to that of HF (ICR (CrljOri: CD1) mice; male, ICR (CrljOri: CD1), mouse, in vivo, 2 weeks): more than 160 times
